Measured values from the NIST ThermoML archive (doi:10.1021/acs.jced.7b00114).
± gives the expanded uncertainty stated by the source.

Assay: activity coefficient (dimensionless); of the first substance listed, at infinite dilution; xn = mol fraction of the nth substance listed
Details: Liquid, Chemical equilibration / Heterogeneous equilibration, x1 = 0

Structure (SMILES) | activity coefficient (283.15 K, 100 kPa) | activity coefficient (293.15 K, 100 kPa) | activity coefficient (303.15 K, 100 kPa) | activity coefficient (313.15 K, 100 kPa) | activity coefficient (318.15 K, 100 kPa) | activity coefficient (323.15 K, 100 kPa) | activity coefficient (298.15 K, 100 kPa) | activity coefficient (308.15 K, 100 kPa) | activity coefficient (328.15 K, 100 kPa) | activity coefficient (278.15 K, 99 kPa) | activity coefficient (283.15 K, 99 kPa) | activity coefficient (288.15 K, 99 kPa) | activity coefficient (293.15 K, 99 kPa) | activity coefficient (298.15 K, 99 kPa) | activity coefficient (303.15 K, 99 kPa)
O [water] + Cc1ccccc1 | 620 ± 57 | 423 ± 39 | 300 ± 27 | 214 ± 19 | 184 ± 16 | 155 ± 14 | – | – | – | – | – | – | – | – | –
O [water] + CCOc1ccccc1 | – | – | 97 ± 8.5 | 77.7 ± 6.8 | 69.9 ± 6.1 | 62.7 ± 5.4 | 110 ± 9.6 | 87.3 ± 7.6 | – | – | – | – | – | – | –
O [water] + COc1ccc(Br)cc1 | – | – | 106 ± 9.3 | 83.3 ± 7.3 | 74.1 ± 6.4 | 65.5 ± 5.7 | 119 ± 10 | 93.7 ± 8.2 | – | – | – | – | – | – | –
O [water] + Clc1ccccc1 | – | – | 318 ± 29 | 235 ± 21 | 202 ± 18 | 177 ± 16 | 376 ± 34 | 271 ± 24 | – | – | – | – | – | – | –
O [water] + COc1ccccc1 | – | – | 84.4 ± 7.3 | 68.8 ± 6 | 61.7 ± 5.3 | 55.9 ± 4.8 | 95.3 ± 8.3 | 75.8 ± 6.6 | 50 ± 4.3 | – | – | – | – | – | –
O [water] + Brc1ccccc1 | – | – | 311 ± 28 | 226 ± 20 | 189 ± 17 | 164 ± 15 | 367 ± 33 | 264 ± 24 | – | – | – | – | – | – | –
O [water] + FC(F)(F)c1ccccc1 | – | – | 302 ± 27 | 218 ± 20 | 181 ± 16 | 155 ± 14 | 362 ± 33 | 256 ± 23 | – | – | – | – | – | – | –
O [water] + ClC=C(Cl)Cl | – | – | – | – | – | – | – | – | – | 1200 ± 130 | 978 ± 100 | 806 ± 84 | 663 ± 69 | 524 ± 54 | 441 ± 45
